The values below are quoted from earlier work in paper PMC5760531, “Action Potential Recording and Pro-arrhythmia Risk Analysis in Human Ventricular Trabeculae” (Frontiers in Physiology, 2018).

By pIC50 is commonly meant the IC50 on a negative log10 scale, so that one unit is a factor of ten.

For data set [1] the following is noted: cited from earlier work.
Data set [2] concerns hERG. The conditions noted are these: read-out: IC50 for hERG; previous experiments; ref Qu and Vargas, 2015; cited from earlier work. (hERG is a cardiac potassium channel; its block is linked to QT prolongation.)

pIC50: −log10 of the molar value.

Turning to `Nc1nnc(-c2cccc(Cl)c2Cl)c(N)n1` [LAMOTRIGINE, Lamotrigine], the “Free ETPC” value in data set [1] (human free (unbound) effective therapeutic plasma concentration used to calculate multiples) is listed as 17 µM. The free therapeutic exposure result in data set [1] (human, ref Dixon et al., 2008) was “approximately 17 μM”. For the same compound, the pIC50 in data set [2] is 3.96.
